Results published in ChEMBL document CHEMBL1155439, “Transient receptor potential ankyrin 1 (TRPA1) channel as emerging target for novel analgesics and anti-inflammatory agents” (J Med Chem, 2010).

Columns and labels:
[1] = biological target: T1, Transient receptor potential cation channel subfamily A member 1 (Mus musculus, UniProt Q8BLA8); assay: Antagonist activity at mouse TRPA1 channel expressed in CHO cells assessed as inhibition of cinnamaldehyde-induced intracellular calcium influx
[2] = biological target: T2, Transient receptor potential cation channel subfamily A member 1 (Homo sapiens, UniProt O75762); assay: Antagonist activity at human TRPA1 channel expressed in CHO cells assessed as inhibition of cinnamaldehyde-induced intracellular calcium influx; format: functional, cell-based
T2 sequence (O75762 whole entry): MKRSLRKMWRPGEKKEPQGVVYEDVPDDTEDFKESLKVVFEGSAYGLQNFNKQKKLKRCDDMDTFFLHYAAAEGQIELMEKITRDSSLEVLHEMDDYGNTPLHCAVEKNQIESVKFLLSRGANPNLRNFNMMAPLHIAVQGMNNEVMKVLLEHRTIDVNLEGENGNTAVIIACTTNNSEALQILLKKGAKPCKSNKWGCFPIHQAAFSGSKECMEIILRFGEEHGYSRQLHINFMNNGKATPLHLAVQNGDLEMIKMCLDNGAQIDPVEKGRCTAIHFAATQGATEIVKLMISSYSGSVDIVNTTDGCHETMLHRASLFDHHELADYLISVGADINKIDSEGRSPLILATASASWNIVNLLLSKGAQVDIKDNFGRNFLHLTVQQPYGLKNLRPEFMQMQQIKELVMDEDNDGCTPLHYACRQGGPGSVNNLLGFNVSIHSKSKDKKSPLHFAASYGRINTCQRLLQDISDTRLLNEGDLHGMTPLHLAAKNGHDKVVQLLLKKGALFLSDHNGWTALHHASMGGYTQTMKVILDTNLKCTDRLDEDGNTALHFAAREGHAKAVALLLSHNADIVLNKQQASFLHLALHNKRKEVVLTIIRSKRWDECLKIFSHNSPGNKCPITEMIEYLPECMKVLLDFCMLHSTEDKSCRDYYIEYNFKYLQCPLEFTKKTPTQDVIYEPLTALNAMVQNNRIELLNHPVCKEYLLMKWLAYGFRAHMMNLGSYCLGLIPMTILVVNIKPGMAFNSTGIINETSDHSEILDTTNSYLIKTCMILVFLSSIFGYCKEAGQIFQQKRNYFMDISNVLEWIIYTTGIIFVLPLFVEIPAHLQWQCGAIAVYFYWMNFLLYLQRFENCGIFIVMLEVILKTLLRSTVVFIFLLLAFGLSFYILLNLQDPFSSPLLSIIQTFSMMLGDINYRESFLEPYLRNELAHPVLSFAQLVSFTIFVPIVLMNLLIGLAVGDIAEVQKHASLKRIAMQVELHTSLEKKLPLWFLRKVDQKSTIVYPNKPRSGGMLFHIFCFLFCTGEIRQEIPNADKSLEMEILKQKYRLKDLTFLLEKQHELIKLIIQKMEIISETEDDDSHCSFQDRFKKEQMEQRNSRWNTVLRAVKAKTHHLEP

[3] = biological target: T2, Transient receptor potential cation channel subfamily A member 1; assay: Antagonist activity at human TRPA1 channel assessed as inhibition of 4-hydroxy-2-nonenal-induced response; format: functional
[4] = biological target: T2, Transient receptor potential cation channel subfamily A member 1; assay: Antagonist activity at human TRPA1 channel assessed as inhibition of allyl isothiocyanate-induced intracellular calcium influx; format: functional, cell-based
[5] = biological target: T1, Transient receptor potential cation channel subfamily A member 1; assay: Activation of mouse TRPA1 channel
[6] = biological target: Transient receptor potential cation channel subfamily V member 4 (Homo sapiens, UniProt Q9HBA0); assay: Antagonist activity at human TRPV4 channel; format: functional
Chain of Transient receptor potential cation channel subfamily V member 4 (Q9HBA0 whole entry): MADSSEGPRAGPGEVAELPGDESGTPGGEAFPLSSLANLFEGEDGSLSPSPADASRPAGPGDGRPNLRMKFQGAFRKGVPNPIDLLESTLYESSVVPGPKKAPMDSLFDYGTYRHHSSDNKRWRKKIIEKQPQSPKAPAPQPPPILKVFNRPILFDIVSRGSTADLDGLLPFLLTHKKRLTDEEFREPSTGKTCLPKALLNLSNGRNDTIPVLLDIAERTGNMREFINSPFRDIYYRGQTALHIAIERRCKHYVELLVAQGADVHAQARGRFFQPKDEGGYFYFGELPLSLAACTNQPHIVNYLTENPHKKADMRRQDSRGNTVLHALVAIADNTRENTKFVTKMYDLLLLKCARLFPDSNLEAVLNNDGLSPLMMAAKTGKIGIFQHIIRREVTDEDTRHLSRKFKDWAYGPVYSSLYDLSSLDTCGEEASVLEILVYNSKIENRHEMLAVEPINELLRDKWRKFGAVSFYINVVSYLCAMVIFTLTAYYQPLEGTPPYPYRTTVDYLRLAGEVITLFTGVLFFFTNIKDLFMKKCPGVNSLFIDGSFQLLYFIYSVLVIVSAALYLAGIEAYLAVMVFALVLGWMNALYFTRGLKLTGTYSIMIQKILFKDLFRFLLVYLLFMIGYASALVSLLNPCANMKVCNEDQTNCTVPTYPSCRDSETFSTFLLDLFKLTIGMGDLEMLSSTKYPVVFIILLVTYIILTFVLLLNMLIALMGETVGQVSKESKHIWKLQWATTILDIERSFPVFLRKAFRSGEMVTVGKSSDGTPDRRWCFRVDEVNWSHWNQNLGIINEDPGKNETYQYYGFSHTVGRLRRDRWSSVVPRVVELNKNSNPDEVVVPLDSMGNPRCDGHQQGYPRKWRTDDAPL

[7] = biological target: Transient receptor potential cation channel subfamily M member 8 (Homo sapiens, UniProt Q7Z2W7); assay: Antagonist activity at human TRPM8 channel; format: functional
Chain of Transient receptor potential cation channel subfamily M member 8 (Q7Z2W7 whole entry): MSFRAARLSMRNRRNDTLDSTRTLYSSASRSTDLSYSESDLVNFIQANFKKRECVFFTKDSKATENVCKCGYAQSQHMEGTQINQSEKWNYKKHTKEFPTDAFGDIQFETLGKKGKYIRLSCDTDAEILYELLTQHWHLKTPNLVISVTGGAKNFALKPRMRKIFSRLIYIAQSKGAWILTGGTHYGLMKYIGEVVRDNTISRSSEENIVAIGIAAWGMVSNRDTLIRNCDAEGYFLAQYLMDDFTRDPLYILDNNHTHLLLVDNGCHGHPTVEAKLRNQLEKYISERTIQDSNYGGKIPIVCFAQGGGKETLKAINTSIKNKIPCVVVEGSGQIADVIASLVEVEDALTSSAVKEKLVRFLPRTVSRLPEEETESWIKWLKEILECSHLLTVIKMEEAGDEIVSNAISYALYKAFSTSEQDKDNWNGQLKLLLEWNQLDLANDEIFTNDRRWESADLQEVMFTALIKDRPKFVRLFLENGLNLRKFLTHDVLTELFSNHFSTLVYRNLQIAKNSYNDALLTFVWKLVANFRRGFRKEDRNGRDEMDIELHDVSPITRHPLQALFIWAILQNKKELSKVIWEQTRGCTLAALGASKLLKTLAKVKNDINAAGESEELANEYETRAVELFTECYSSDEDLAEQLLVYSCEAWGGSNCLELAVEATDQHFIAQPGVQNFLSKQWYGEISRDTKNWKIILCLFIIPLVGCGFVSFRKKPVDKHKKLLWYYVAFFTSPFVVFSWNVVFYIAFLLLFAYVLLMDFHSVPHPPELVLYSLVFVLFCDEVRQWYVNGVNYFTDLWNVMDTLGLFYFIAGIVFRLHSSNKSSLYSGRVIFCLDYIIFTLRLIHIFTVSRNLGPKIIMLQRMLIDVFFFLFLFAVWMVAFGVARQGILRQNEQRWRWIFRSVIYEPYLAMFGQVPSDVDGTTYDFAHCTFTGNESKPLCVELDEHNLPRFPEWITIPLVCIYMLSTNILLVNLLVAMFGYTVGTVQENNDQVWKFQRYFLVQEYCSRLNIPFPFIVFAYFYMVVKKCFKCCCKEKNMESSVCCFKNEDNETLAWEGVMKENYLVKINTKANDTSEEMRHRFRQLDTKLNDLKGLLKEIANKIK

[8] = biological target: T2, Transient receptor potential cation channel subfamily A member 1; assay: Antagonist activity at human TRPA1 channel expressed in HEK293 cells assessed as inhibition of allyl isothiocyanate-induced intracellular calcium influx by FLIPR; format: functional, cell-based
[9] = biological target: T3, Transient receptor potential cation channel subfamily V member 3 (Homo sapiens, UniProt Q8NET8); assay: Antagonist activity at human TRPV3 channel; format: functional
T3 sequence (Q8NET8 whole entry): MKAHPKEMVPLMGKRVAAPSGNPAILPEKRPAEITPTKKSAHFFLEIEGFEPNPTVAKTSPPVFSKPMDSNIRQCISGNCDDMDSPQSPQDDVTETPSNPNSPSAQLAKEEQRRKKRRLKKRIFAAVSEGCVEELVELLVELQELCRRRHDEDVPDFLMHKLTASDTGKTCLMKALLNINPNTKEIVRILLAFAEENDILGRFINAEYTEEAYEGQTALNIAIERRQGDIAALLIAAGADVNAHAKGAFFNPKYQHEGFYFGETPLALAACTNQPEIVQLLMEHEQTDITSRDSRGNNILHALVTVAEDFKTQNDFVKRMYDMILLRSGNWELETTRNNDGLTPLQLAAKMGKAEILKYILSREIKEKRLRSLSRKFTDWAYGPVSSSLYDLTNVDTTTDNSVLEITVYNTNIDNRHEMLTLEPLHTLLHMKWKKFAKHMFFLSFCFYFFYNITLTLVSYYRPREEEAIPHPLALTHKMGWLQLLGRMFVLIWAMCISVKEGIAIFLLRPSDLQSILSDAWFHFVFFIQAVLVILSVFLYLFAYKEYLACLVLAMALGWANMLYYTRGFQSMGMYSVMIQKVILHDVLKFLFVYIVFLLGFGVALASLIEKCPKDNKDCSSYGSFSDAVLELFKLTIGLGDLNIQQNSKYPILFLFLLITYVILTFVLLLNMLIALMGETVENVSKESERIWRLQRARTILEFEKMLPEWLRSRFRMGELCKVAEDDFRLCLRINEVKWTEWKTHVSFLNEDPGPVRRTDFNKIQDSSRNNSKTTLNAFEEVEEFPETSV

[10] = biological target: Transient receptor potential cation channel subfamily V member 1 (Homo sapiens, UniProt Q8NER1); assay: Antagonist activity at human TRPV1 channel; format: functional
Chain of Transient receptor potential cation channel subfamily V member 1 (Q8NER1 whole entry): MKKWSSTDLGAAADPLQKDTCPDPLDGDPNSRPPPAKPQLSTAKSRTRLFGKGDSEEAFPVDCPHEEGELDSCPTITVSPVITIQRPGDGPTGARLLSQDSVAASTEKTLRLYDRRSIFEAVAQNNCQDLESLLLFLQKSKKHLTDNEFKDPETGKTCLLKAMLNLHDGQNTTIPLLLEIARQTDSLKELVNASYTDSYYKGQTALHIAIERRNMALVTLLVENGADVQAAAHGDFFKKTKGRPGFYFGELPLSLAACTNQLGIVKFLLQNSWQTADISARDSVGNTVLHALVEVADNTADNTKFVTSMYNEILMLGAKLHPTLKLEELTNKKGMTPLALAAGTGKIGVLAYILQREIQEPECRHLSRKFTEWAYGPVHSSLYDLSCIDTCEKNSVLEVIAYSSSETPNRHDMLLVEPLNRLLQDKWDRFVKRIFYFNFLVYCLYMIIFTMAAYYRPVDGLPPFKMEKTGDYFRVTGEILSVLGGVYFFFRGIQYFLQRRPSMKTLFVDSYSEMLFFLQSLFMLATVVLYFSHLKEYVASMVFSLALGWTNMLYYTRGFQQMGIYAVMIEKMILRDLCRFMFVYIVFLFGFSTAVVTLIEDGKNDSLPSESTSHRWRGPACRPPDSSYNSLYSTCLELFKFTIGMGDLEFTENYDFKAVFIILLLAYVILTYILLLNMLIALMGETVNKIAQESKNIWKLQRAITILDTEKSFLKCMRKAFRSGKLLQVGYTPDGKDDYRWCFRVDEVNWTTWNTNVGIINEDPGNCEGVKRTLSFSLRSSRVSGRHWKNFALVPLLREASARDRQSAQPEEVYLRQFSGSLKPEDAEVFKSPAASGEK

[11] = biological target: T2, Transient receptor potential cation channel subfamily A member 1; assay: Antagonist activity at human TRPA1 channel assessed as inhibition of nifedipine-induced intracellular calcium influx; format: functional, cell-based
[12] = biological target: T2, Transient receptor potential cation channel subfamily A member 1; assay: Antagonist activity at human TRPA1 channel expressed in HEK293 cells assessed as inhibition of cinnamaldehyde-induced intracellular calcium influx by FLIPR; format: functional, cell-based
[13] = biological target: T2, Transient receptor potential cation channel subfamily A member 1; assay: Antagonist activity at human TRPA1 channel assessed as inhibition of formalin-induced intracellular calcium influx; format: functional, cell-based

T1 sequence (Q8BLA8 whole entry): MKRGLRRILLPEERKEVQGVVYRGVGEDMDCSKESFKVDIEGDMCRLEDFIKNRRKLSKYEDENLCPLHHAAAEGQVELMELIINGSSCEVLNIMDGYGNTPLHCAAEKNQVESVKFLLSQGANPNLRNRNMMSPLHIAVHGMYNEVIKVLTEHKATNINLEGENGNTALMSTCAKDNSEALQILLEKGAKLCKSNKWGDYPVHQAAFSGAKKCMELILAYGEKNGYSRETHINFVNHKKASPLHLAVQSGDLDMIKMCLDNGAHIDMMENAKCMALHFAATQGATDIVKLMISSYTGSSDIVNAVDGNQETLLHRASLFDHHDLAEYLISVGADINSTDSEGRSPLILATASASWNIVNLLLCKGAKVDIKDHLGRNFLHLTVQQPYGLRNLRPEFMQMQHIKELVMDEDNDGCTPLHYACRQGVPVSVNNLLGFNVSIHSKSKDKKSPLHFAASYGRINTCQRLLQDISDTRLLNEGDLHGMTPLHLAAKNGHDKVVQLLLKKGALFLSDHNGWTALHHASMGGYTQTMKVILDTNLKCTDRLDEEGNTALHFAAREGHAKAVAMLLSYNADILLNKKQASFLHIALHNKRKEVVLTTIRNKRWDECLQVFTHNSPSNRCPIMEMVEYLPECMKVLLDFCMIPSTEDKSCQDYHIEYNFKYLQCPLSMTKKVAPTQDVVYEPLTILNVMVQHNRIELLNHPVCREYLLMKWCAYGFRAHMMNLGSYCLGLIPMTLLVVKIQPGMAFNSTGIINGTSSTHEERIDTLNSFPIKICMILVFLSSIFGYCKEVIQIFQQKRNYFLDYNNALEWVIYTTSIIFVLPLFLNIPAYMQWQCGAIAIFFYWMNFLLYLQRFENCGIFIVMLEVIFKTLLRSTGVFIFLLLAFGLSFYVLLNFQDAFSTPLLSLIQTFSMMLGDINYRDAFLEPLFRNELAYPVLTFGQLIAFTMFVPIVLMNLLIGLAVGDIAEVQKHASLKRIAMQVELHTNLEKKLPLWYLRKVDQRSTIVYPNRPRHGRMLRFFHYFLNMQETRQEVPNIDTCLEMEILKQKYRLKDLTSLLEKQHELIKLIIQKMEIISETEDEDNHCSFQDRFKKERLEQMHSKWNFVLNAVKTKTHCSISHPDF

SMILES	IC50 [1] [µM]	IC50 [2] [µM]	IC50 [3] [µM]	IC50 [4] [µM]	EC50 [5] [µM]	IC50 [6] [µM]	IC50 [7] [µM]	IC50 [8] [µM]	IC50 [9] [µM]	IC50 [10] [µM]	IC50 [11] [µM]	IC50 [12] [µM]	IC50 [13] [µM]
CC(=C\c1ccc(Cl)cc1)/C(C)=N/O [AP18 5]	4.5	3.1											
CCC(C)c1ccc(NC(=O)Cn2cnc3c2c(=O)n(C)c(=O)n3C)cc1 (stereo not given)			18.7	14.3	2500								
CC(C)c1ccc(NC(=O)Cn2cnc3c2c(=O)n(C)c(=O)n3C)cc1				6.2	1000	> 10	> 30	7.5	> 10	> 20	1.8	4.9	5.3
